Literature values, collected in patent publication US7517991B2, “N-sulfonylpiperidine cannabinoid receptor 1 antagonists” (Bristol-Myers Squibb Company, priority 2004, dated 2009).
Read-outs that look alike come from different tables or passages of the source.

Tests used:
[1] = human subjects, 16 week trial period, Phase IIb
[2] = chronic administration for two weeks

Structure (SMILES) | body weight [1] | body weight [2]
Cc1c(C(=O)NN2CCCCC2)nn(-c2ccc(Cl)cc2Cl)c1-c1ccc(Cl)cc1 [SR-141716] | dose-dependently reduced body weight | 
Cc1c(C(=O)NN2CCCCC2)nn(-c2ccc(Cl)cc2Cl)c1-c1ccc(I)cc1 [AM-251] |  | substantial body weight reduction
